In US20100146646A1, “METHOD OF MONITORING RETINOPATHY” (priority 2007, published 2010):
Entries after “also recorded” stand apart in the source; their conditions may differ.

Assays:
[1] = tested on: transgenic GFAP-GFP mice (glia of optic disc and central retina); assay: In vivo scanning laser opthalmoscope (SLO) imaging of GFP fluorescence in the optic disc after neurotoxicant injection; design: species or system mouse; conditions: for time point of maximum GFP fluorescence around the fringe of the optic disc: adult GFAP-GFP mice, ip neurotoxicant, SLO imaging over 14 days; for retinal gliosis: neurotoxicant-treated GFAP-GFP mice, summary statement
Excerpt: Transgenic GFAP-GFP mice: The generation and genotyping of the transgenic GFAP-GFP mice were done as previously described (Zhuo et al., 1997). Adult mice (8-10 weeks old) in the FVB/N background were used in the present study. Animal husbandry was provided by National University of Singapore animal holding unit. The experimental protocol covering the current study was approved by the Institutional Animal Care and Use Committee.
(§1) The test compounds 2′-CH3-MPTP (M103), KA (K0250) and IDPN (317306) were purchased from Sigma-Aldrich (St. Louis, Mo., USA). Each mouse in the treatment group received either 4 intraperitoneal (ip) injections of 2′-CH3-MPTP (15 mg/kg in saline, ip, once every 2 hours), a single injection of KA (25 mg/kg in saline, ip) or 3 injections of IDPN (500 mg/kg, ip, once daily). For each neurotoxicant-treated group (n=3), saline was used as a vehicle for the control group (n=3). Retinal imaging was subsequently performed over a period of 14 days.
Preparation of Animals: Mice were Anaesthetized by Ip Injections with 0.15 ml/10 g body weight of Avertin (1.5% 2,2,2-tribromoethanol; T48402) purchased from Sigma-Aldrich (St. Louis, Mo., USA), and their pupils dilated with a drop of 0.5% Cyclogyl® sterile ophthalmic solution (cyclopentolate hydrochloride, Alcon®, Puurs, Belgium). Custom-made PMMA hard contact lenses (from Cantor & Nissel (Northamptonshire, UK) were used to correct optical aberration and to avoid dehydration of the mouse eyes. Careful examination by an eye specialist before scanning laser opthalmoscope imaging ruled out the presence of any corneal or lens opacities.
Scanning laser opthalmoscope (SLO) imaging: For the work described here, the second version of Heidelberg Retina Angiograph (HRA II) scanning laser opthalmoscope (Heidelberg Engineering, Dossenheim, Germany) modified for use on mice was employed. The scanning laser opthalmoscope (SLO) is a fundus imaging technique based on the scanning of the fundus with a laser beam from a point source, while the reflected light is detected by a photomultiplier. Incident and reflected light follow a co-axial path. Therefore, more light can pass through small eyes than with conventional fundus cameras. Several reports of SLO imaging in rats (Hossain et al., 1998; Khoobehi and Peyman, 1999; Cordeiro et al., 2004; Genevois et al., 2004) and mice (Jaissle et al., 2001; Xu et al., 2003) have been published, with the latest study by (Seeliger et al., 2005) and (Paques et al., 2006) in evaluating mouse fundus with the first version of the HRA (or HRA I). The HRA II features the two Argon lasers in the short wavelength range (488 nm and 514 nm) and two infrared diode lasers in the long wavelength range (795 nm and 830 nm). The 488 and 795 nm lasers are used for fluorescein and indocyanine green angiography respectively. Appropriate barrier filters of 500 nm and 800 nm, respectively, remove the reflected light with unchanged wavelength and allow only the light emitted by the dye upon stimulation to pass through. The finest definition is 768×768 pixels at an optical resolution of 10 μm/pixel and coupled with three fields of view (nominal values of 15°, 20° and 30°). The focus is adjustable over a +12/−12 diopters range using step increments of 0.25 diopters. A video acquisition mode (48 ms to 96 ms per image) is available. Within any area of interest, a stack of tomographic images (z-scans) up to a maximum depth of 8 mm can be automatically acquired.

[2] = tested on: transgenic GFAP-GFP mice (hippocampus, substantia nigra, striatum, olfactory bulb); assay: Brain cryosections: transgenic GFP and GFAP immunohistochemistry (gliosis); assay type: in vivo, mouse
Protocol: as §1
Retina wholemount and immunohistochemistry (IHC): After perfusing the mice with 1×PBS, followed by 4% fresh paraformaldehyde (in 1×PBS, pH 7.4), the brains were harvested and the eyes enucleated. The eyes were fixed immediately in 4% paraformaldehyde overnight at 4° C., after which they were dissected at the equator with the lens and vitreous removed. The retina was then dissected free from the choroid and sclera and whole mounted on a glass slide. Whole retina was mounted with Vectorshield mounting medium for fluorescence (Vector Laboratories, Inc., Burlingame, Calif., USA; H1000). The brains were first fixed in 4% paraformaldehyde for 4 hr at 4° C. and soaked in 30% sucrose at 4° C. overnight. The processed brain tissues were embedded in OTC freezing medium for sectioning on a cryostat (Leica Microsystems, Nussloch GmbH; CM-3050S). Coronal cryosections (10 μm) of the hippocampus (bregma −1.94 mm, interaural 1.86 mm), SNpc (bregma −3.16 mm, interaural 0.64 mm) and olfactory bulb (bregma 4.28 mm, interaural 8.08 mm) according to the Atlas of Mouse Brain (Franklin and Paxinos, 2001), together with the retina wholemounts were used for IHC using rabbit polyclonal antibodies (in 1:200 dilution) against GFAP (Dako, Z0334). Sections of the SNpc and striatum (bregma 0.62 mm, interaural 4.42 mm) were used for IHC using rabbit polyclonal antibodies (in 1:200 dilution) against tyrosine hydroxylase (TH; Chemicon, Calif., USA; Ab-152). The bound primary antibodies on the tissue sections were stained with a goat IgG conjugated to Texas-red (Abeam, Ab7088) at 1:100 dilution for 2 hr at room temperature, and visualized using confocal microscopy (LSM 510 META, Carl Zeiss Microimaging GmbH, Jena Germany).

[3] = tested on: transgenic GFAP-GFP mice (whole-mount retina); assay: Retina whole-mount: transgenic GFP and GFAP immunohistochemistry; assay type: in vivo, mouse; conditions: 7 days after a single ip injection (25 mg/kg), vs saline
Protocol: as §1
(§2) Retina wholemount and immunohistochemistry (IHC): After perfusing the mice with 1×PBS, followed by 4% fresh paraformaldehyde (in 1×PBS, pH 7.4), the brains were harvested and the eyes enucleated. The eyes were fixed immediately in 4% paraformaldehyde overnight at 4° C., after which they were dissected at the equator with the lens and vitreous removed. The retina was then dissected free from the choroid and sclera and whole mounted on a glass slide. Whole retina was mounted with Vectorshield mounting medium for fluorescence (Vector Laboratories, Inc., Burlingame, Calif., USA; H1000). The brains were first fixed in 4% paraformaldehyde for 4 hr at 4° C. and soaked in 30% sucrose at 4° C. overnight. The processed brain tissues were embedded in OTC freezing medium for sectioning on a cryostat (Leica Microsystems, Nussloch GmbH; CM-3050S). […]

retinal Müller cells = conditions: injected into the vitreous of the eye; cited from earlier work
[4] = tested on: neuronal and glial cells in the retina; conditions: cited from earlier work
[5] = tested on: transgenic GFAP-GFP mice (SNpc and striatum); assay: Brain cryosections: tyrosine hydroxylase (TH) immunohistochemistry; assay type: in vivo, mouse; conditions: a day after administration, vs saline
Protocol: as §1, §2

[6] = 7 days after administration, vs saline
[7] = a day after administration, vs saline

## C=C(C)[C@H]1CN[C@H](C(=O)O)[C@H]1CC(=O)O [KA, kainic acid]
[1]
  time point of maximum GFP fluorescence around the fringe of the optic disc: 7 days
  retinal gliosis: elicits retinal gliosis
[2]; 7 days after administration, compared to saline control
  level of GFP and GFAP expression in the entire hippocampus area (CA1, CA3, dentate gyrus): extremely high level of GFP and GFAP expression
[2]; [6]
  gliosis in astrocytes of the hippocampus (GFP and GFAP): severe reactive gliosis
[3]
  gliosis in the nerve fiber layer (NFL) of whole-mount retina (transgenic GFP and endogenous GFAP): severe gliosis
Retinal Müller cells
  GFAP in the retinal Müller cells: up-regulation of GFAP

## N#CCCNCCC#N [IDPN, 3,3-iminodipropionitrile]
[1]
  time point of maximum GFP fluorescence around the fringe of the optic disc: 7 days
  retinal gliosis: elicits retinal gliosis
[2]; 7 days after administration (3 x 500 mg/kg ip), vs saline
  gliosis / GFP-positive astrocytes co-localizing with GFAP-immunoreactive cells in the glomerular layer (GL) of the olfactory bulb: acute gliosis; also recorded: markedly more GFP-positive astrocytes
[2]; [6]
  GFAP-positive cells in the granular cell layer (GCL) of the olfactory bulb: strong increase of GFAP-positive cells

## CN1CC=C(c2ccccc2)CC1 [MPTP, 1-methyl-4-phenyl-1,2,3,6-tetrahydropyrine]
[4]; several days after injection
  GFAP immunoreactivity of the glial cells of the retina: increased
[4]; within a week after systemic injection in mice
  microglia in the inner outer retina: microglia activation was observed

## Cc1ccccc1C1=CCN(C)CC1 [2′-CH3-MPTP, 1-methyl-4(2′-methylphenyl)-1,2,3,6-tetrahydropyridine]
[1]
  time point of maximum GFP fluorescence around the fringe of the optic disc: 1 days
  retinal gliosis: elicits retinal gliosis
[1]; after administration of the neurotoxicant (4 x 15 mg/kg ip)
  time of maximal increase in GFP expression in the optic disc: 24 h
[5]
  TH-immunoreactive midbrain dopaminergic neurons in the SNpc: observable tyrosine hydroxylase (TH) depletion; also recorded: marked depletion
  level of TH expression in the striatum: no change in TH expression could be visually observed; also recorded: no detectable changes
[2]; [7]
  GFP / gliosis in striatal astrocytes: acute gliosis; also recorded: substantial GFP increase
  gliosis in the substantia nigra: gliosis occurs extensively
[2]; a day after systemic administration
  GFP and GFAP expression in activated astrocytes of the brain: an increase in GFP and to a lesser extent, GFAP expression
